Test results from patent US20220313753A1, “BIFIDOBACTERIUM BIFIDUM BACTERIAL STRAIN, THE COMPOSITIONS THEREOF AND RELATED USES” (priority 2019, published 2022).
Where two headings read alike, the source gives them in different places.

What was measured:
[1] = system: B. bifidum MIMBb23sg DSM 32708; assay: Antibiotic MIC by microdilution analysis (ISO, 2010); assay type: cell-based, Bifidobacterium bifidum; details: for MIC: Bifidobacterium bifidum
bifidobacteria = details: limit values provided for bifidobacteria (EFSA, 2012); cited from earlier work
[2] = DSM32708, microdilution analysis, ISO 2010, read-out: MIC of MIMBb23sg

Compound	MIC [1, 2] [mg/L]	EFSA limit values (bifidobacteria) [µg/mL]	MIC ([1]; DSM32708, read-out: MIC of MIMBb23sg) [mg/L]	MIC of MIMBb23sg ([1]; microdilution analysis, ISO 2010) [mg/L]
CC1(C)S[C@@H]2[C@H](NC(=O)[C@H](N)c3ccccc3)C(=O)N2[C@H]1C(=O)O [ampicillin]	0.25	2		
O=C(N[C@H](CO)[C@H](O)c1ccc([N+](=O)[O-])cc1)C(Cl)Cl [chloramphenicol]	2	4		
CCC[C@@H]1C[C@@H](C(=O)N[C@@H]([C@H]2O[C@H](SC)[C@H](O)[C@@H](O)[C@H]2O)[C@H](C)Cl)N(C)C1 [clindamycin]	0.25			
CC[C@H]1OC(=O)[C@H](C)[C@@H](O[C@H]2C[C@@](C)(OC)[C@@H](O)[C@H](C)O2)[C@H](C)[C@@H](O[C@@H]2O[C@H](C)C[C@H](N(C)C)[C@H]2O)[C@](C)(O)C[C@@H](C)C(=O)[C@H](C)[C@@H](O)[C@]1(C)O [erythromycin]	0.25	1		
NC[C@H]1O[C@H](O[C@H]2[C@H](O)[C@@H](O[C@H]3O[C@H](CO)[C@@H](O)[C@H](N)[C@H]3O)[C@H](N)C[C@@H]2N)[C@H](O)[C@@H](O)[C@@H]1O [kanamycin]	128			
[H]/N=C(/N)N[C@H]1[C@H](O)[C@@H](O)[C@H](O[C@@H]2O[C@@H](C)[C@](O)(C=O)[C@H]2O[C@@H]2O[C@@H](CO)[C@H](O)[C@@H](O)[C@@H]2NC)[C@@H](N/C(N)=N\[H])[C@@H]1O [streptomycin]	128	128		
CN(C)[C@@H]1C(O)=C(C(N)=O)C(=O)[C@@]2(O)C(O)=C3C(=O)c4c(O)cccc4[C@@](C)(O)[C@H]3C[C@@H]12 [tetracycline]	1			
CN[C@H](CC(C)C)C(=O)N[C@H]1C(=O)N[C@@H](CC(N)=O)C(=O)N[C@H]2C(=O)N[C@H]3C(=O)N[C@H](C(=O)N[C@H](C(=O)O)c4cc(O)cc(O)c4-c4cc3ccc4O)[C@H](O)c3ccc(c(Cl)c3)Oc3cc2cc(c3O[C@@H]2O[C@H](CO)[C@@H](O)[C@H](O)[C@H]2O[C@H]2C[C@](C)(N)[C@H](O)[C@H](C)O2)Oc2ccc(cc2Cl)[C@H]1O [vancomycin]		2	0.5	
gentamicin		64		32
